{"source": "patent US10111901B2", "about": "“Beta-glucan in combination with anti-cancer agents affecting the tumor microenvironment” (Biothera, Inc., priority 2014, dated 2018)", "assay_type_in_all_cases": "cell-based, human", "key": {"mMoDC": {"tested_on": "mMoDC", "assay": "Flow cytometry of maturation markers on mature monocyte-derived dendritic cells (mMoDC)", "procedure": "Given that macrophages and dendritic cells are the two key antigen presenting cell types that bridge innate and adaptive immunity, the phenotypic and functional effect of soluble β-glucan was also evaluated on human monocyte-derived dendritic cells (MoDC). Monocytes enriched from soluble β-glucan- or vehicle-treated whole blood were cultured in media containing the appropriate cytokines, GM-CSF plus IL-4, for differentiation of dendritic cells. Steps included in the method for in vitro culture and characterization of human MoDCs are outlined below.\nThe phenotypic and functional evaluation of mMoDC prepared from soluble β-glucan-treated whole blood of a high binder and low binder was carried out. mMoDCs from a high binder and a low binder were prepared as described above. mMoDCs were evaluated for CD80, CD83, CD86 and HLA-DR expression by flow cytometry, and median MFI was calculated for isotype control staining and surface antigen staining and the results are shown in Table 7.\nMoDC derived from β-glucan-treated monocytes are more mature even in immunosuppressive conditions. MoDCs were prepared as described above. TCM was added to account for 70% of the volume of the culture on day 0 and was present throughout the culturing period. mMoDCs cultured in the presence of TCM were subsequently evaluated for phenotypic changes."}, "M2 macrophages": {"tested_on": "M2 macrophages", "assay": "Mac-CD4 T co-culture surface marker modulation on macrophages", "procedure": "For evaluation of Mac-CD4 T cell surface marker modulation, M2 macrophages were co-cultured with T cells as described above and cells were harvested on day 8, day 9 and day 10 to perform surface receptor staining on both M2 macrophages and T cells.\nChanges in surface marker expression on both macrophages and CD3 & CD28-stimulated T cells were also measured. Vehicle- and β-glucan-treated M2 macrophages and CD T cells from the co-cultures were evaluated by flow cytometry for the modulation of co-stimulatory or co-inhibitory molecules. FIG. 8C and Table 9 are representative results from 2 different experiments."}, "Tregs (CD4+CD25+)": {"tested_on": "Tregs (CD4+CD25+)", "assay": "Treg suppression assay", "procedure": "Since these PBMC cultures contain Tregs, the suppressive ability of Tregs seem to be altered in the presence of soluble β-glucan and studies were carried out to determine if β-glucan affected Treg suppression. Plasma from β-glucan-treated or vehicle-treated whole blood (described above) was added to 25,000 isolated CFSE-labeled autologous CD4 T cells (CD4^+CD25^−) along with increasing numbers of isolated autologous Tregs (CD4^+CD25^+) resulting in wells with increasing ratios. Cells were then stimulated with 50,000 T cell activating CD3/28 beads for 3 days. Proliferation was subsequently measured by CFSE dilution and quantified by Division Index, which was used to calculate the % suppression of Tregs in the co-culture. % suppression=100−(Division Index of Treg well/Division Index of 1:0 well)[…].\nThe Treg suppression assay was conducted as described above, and after 3 days of co-culture, supernatants were analyzed for IFN-gamma production."}, "monocytes": {"tested_on": "monocytes", "assay": "β-glucan binding to monocytes in whole blood, serum cross-over", "procedure": "To test this, M2 macrophages were prepared as described above with a few modifications. The whole blood of a low binder was spun down to remove the plasma and then the cells were reconstituted with serum obtained from a high binder. The reconstituted blood was treated with vehicle or β-glucan (25 μg/mL) for 2 hours at 37° C. The monocytes were evaluated for binding by using anti-β-glucan specific monoclonal antibody and subsequent flow cytometry."}, "[1]": {"details": "MoDC cultured in TCM, immunosuppressive conditions"}, "[2]": {"details": "relative to vehicle-treated M2 macrophages, co-culture"}}}
{"substance": "β(1,6)-[poly-(1,3)-D-glucopyranosyl]-poly-β(1,3)-D-glucopyranose [β-glucan]", "values": [{"measurement": "CD80 median MFI", "setting": "mMoDC; MoDC cultured in TCM (70% of volume, from day 0), immunosuppressive conditions", "result": 465}, {"measurement": "CD83 median MFI", "setting": "mMoDC; [1]", "result": 607}, {"measurement": "CD86 median MFI", "setting": "mMoDC; [1]", "result": 15797}, {"measurement": "HLA-DR median MFI", "setting": "mMoDC; [1]", "result": 361}, {"measurement": "CD80 median MFI", "setting": "mMoDC; mMoDCs, high binder", "result": 744}, {"measurement": "CD83 median MFI", "setting": "mMoDC; mMoDCs, high binder", "result": 466}, {"measurement": "CD86 median MFI", "setting": "mMoDC; mMoDCs, high binder", "result": 10759}, {"measurement": "HLA-DR median MFI", "setting": "mMoDC; mMoDCs, high binder", "result": 7049}, {"measurement": "CD80 median MFI", "setting": "mMoDC; mMoDCs, low binder", "result": 1197}, {"measurement": "CD83 median MFI", "setting": "mMoDC; mMoDCs, low binder", "result": 2924}, {"measurement": "CD86 median MFI", "setting": "mMoDC; mMoDCs, low binder", "result": 77749}, {"measurement": "HLA-DR median MFI", "setting": "mMoDC; mMoDCs, low binder", "result": 2960}, {"measurement": "Change in MFI on Macrophages: 4-1BBL", "setting": "M2 macrophages; [2]", "result": "No change"}, {"measurement": "Change in MFI on Macrophages: CD40", "setting": "M2 macrophages; [2]", "result": "No change"}, {"measurement": "Change in MFI on Macrophages: CD80", "setting": "M2 macrophages; [2]", "result": "No change"}, {"measurement": "Change in MFI on Macrophages: CD172", "setting": "M2 macrophages; [2]", "result": "No change"}, {"measurement": "Change in MFI on Macrophages: CD209", "setting": "M2 macrophages; [2]", "result": "No change"}, {"measurement": "Change in MFI on Macrophages: OX40", "setting": "M2 macrophages; [2]", "result": "No change"}, {"measurement": "Change in MFI on Macrophages: CD86", "setting": "M2 macrophages; relative to vehicle-treated M2 macrophages, co-culture (day 8)", "result": "Increase"}, {"measurement": "Change in MFI on Macrophages: PD-L1 (CD274)", "setting": "M2 macrophages; relative to vehicle-treated M2 macrophages, co-culture (day 9)", "result": "Increase"}, {"measurement": "Change in MFI on Macrophages: HLA-DR", "setting": "M2 macrophages; β-glucan-treated M2 macrophages relative to vehicle-treated, co-culture with CD3 & CD28-stimulated T cells", "result": "No change"}, {"measurement": "IFN-gamma production", "setting": "Tregs (CD4+CD25+); Treg suppression assay, 3 days, 8:1 T cell to Treg ratio", "result": "enhanced IFN-gamma production"}, {"measurement": "suppressive capacity of Tregs", "setting": "Tregs (CD4+CD25+); plasma from β-glucan-treated whole blood vs vehicle-treated", "result": "significant decreases"}, {"measurement": "binding of β-glucan to monocytes", "setting": "monocytes; low binder's whole blood with high binder's serum containing higher levels of ABA", "result": "significantly higher binding"}, {"measurement": "binding of β-glucan to monocytes", "setting": "monocytes; whole blood of a low binder", "result": "did not bind"}]}
